Patent US10266537B2, “3-acetylenyl-pyrazole-pyrimidine derivative, and preparation method therefor and uses thereof” (Si Chuan University, priority 2015, dated 2019)
pIC50: −log10 of the molar value.

Assays:
Experiment in all cases: Kinase inhibition assay (KinaseProfiler, 33P-ATP)
[1] = molecular target: Lck (Homo sapiens (Human), UniProt P06239); type: biochemical
[2] = molecular target: Aurora-A(h) (Homo sapiens (Human), UniProt O14965); type: biochemical; conditions: read-out: The percentage of the remaining active protein
[3] = molecular target: TSSK2(h) (Homo sapiens (Human), UniProt Q96PF2); type: biochemical; conditions: read-out: The percentage of the remaining active protein
Sequence of TSSK2(h) (Q96PF2 whole entry): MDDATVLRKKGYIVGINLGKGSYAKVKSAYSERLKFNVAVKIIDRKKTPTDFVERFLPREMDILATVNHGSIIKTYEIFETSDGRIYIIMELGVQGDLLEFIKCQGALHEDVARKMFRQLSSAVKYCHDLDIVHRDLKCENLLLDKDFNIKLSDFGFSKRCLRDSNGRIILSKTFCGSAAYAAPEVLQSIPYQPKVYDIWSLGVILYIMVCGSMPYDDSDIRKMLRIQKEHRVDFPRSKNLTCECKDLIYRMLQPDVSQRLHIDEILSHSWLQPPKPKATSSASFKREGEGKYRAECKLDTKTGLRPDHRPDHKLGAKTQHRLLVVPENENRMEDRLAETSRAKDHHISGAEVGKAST

[4] = molecular target: GRK5(h) (Homo sapiens (Human), UniProt P34947); type: biochemical; conditions: read-out: The percentage of the remaining active protein
Sequence of GRK5(h) (P34947 whole entry): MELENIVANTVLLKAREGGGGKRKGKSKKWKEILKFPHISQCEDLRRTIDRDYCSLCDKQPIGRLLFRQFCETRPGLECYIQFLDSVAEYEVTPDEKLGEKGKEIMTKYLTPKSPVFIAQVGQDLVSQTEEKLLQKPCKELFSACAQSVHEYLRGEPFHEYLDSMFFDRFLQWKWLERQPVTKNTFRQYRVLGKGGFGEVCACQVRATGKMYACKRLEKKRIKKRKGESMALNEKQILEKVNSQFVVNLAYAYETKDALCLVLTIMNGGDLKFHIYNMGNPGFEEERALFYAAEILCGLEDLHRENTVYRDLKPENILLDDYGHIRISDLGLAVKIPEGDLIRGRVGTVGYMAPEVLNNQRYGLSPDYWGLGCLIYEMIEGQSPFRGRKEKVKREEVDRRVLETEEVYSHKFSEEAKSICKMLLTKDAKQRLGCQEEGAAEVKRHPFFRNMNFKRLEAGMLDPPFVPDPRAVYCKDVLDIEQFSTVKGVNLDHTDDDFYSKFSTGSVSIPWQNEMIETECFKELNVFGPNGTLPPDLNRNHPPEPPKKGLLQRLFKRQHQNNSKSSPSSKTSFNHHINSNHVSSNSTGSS

[5] = molecular target: Met(D1246H)(h) (Homo sapiens (Human), UniProt P08581, D1246H); type: biochemical; conditions: read-out: The percentage of the remaining active protein
[6] = molecular target: CDK3/cyclinE(h) (Homo sapiens (Human), UniProt Q00526); type: biochemical; conditions: read-out: The percentage of the remaining active protein
Sequence of CDK3/cyclinE(h) (Q00526 whole entry): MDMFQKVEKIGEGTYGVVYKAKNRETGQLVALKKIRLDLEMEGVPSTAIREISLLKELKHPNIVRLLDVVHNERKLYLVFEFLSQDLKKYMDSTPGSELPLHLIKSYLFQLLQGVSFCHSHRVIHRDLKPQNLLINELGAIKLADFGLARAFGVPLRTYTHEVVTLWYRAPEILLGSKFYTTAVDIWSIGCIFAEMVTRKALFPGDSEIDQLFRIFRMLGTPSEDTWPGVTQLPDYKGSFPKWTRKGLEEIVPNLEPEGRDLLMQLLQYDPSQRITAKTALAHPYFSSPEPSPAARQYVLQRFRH
Sequence of CDK3/cyclinE(h) (P24864 whole entry partner): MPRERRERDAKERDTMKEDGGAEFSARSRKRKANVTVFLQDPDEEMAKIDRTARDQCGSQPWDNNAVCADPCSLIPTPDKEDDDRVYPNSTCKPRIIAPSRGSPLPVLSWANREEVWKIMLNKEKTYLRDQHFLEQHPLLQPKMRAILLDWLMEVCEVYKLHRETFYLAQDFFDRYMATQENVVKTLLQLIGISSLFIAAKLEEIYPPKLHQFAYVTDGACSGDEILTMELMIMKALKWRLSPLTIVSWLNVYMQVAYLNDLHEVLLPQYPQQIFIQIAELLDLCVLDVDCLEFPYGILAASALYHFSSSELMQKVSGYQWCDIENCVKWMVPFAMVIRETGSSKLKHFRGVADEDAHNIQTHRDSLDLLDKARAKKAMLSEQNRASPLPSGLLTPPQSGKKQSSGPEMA

[7] = molecular target: Hck(h) activated (Homo sapiens (Human), UniProt P08631); type: biochemical; conditions: read-out: The percentage of the remaining active protein
[8] = molecular target: cKit(h) (Homo sapiens (Human), UniProt P10721); type: biochemical; conditions: 10 μM, read-out: The percentage of the remaining active protein
[9] = molecular target: ATR/ATRIP(h) (Homo sapiens (Human), UniProt Q13535); type: biochemical; conditions: read-out: The percentage of the remaining active protein
[10] = molecular target: PI3 Kinase (p110a/p85a)(m) (Mus musculus (Mouse), UniProt P42337); type: biochemical; conditions: read-out: The percentage of the remaining active protein
[11] = molecular target: Ret(V804M)(h) (Homo sapiens (Human), UniProt P07949, V804M); type: biochemical; conditions: read-out: The percentage of the remaining active protein
[12] = molecular target: TGFBR1(h) (Homo sapiens (Human), UniProt P36897); type: biochemical; conditions: read-out: The percentage of the remaining active protein
[13] = molecular target: GRK1(h) (Homo sapiens (Human), UniProt Q15835); type: biochemical; conditions: read-out: The percentage of the remaining active protein
Sequence of GRK1(h) (Q15835 whole entry): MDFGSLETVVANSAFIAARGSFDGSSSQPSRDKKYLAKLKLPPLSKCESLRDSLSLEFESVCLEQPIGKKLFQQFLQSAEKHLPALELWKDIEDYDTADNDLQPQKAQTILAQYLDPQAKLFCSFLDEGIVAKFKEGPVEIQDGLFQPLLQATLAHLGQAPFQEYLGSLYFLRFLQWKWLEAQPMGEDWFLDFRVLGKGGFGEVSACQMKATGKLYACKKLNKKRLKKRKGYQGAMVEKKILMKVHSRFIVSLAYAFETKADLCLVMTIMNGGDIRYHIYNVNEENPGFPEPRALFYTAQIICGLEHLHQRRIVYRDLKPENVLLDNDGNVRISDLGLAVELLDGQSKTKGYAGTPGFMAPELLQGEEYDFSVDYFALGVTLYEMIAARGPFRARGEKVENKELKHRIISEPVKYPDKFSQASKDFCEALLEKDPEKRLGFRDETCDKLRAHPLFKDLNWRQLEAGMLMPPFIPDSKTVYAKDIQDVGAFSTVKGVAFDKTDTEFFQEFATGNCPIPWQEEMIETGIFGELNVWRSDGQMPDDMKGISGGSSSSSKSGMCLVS

[14] = molecular target: SNRK(h) (Homo sapiens (Human), UniProt Q9NRH2); type: biochemical; conditions: read-out: The percentage of the remaining active protein
[15] = molecular target: CaMKIδ(h) (Homo sapiens (Human), UniProt Q8IU85); type: biochemical; conditions: read-out: The percentage of the remaining active protein
Sequence of CaMKIδ(h) (Q8IU85 whole entry): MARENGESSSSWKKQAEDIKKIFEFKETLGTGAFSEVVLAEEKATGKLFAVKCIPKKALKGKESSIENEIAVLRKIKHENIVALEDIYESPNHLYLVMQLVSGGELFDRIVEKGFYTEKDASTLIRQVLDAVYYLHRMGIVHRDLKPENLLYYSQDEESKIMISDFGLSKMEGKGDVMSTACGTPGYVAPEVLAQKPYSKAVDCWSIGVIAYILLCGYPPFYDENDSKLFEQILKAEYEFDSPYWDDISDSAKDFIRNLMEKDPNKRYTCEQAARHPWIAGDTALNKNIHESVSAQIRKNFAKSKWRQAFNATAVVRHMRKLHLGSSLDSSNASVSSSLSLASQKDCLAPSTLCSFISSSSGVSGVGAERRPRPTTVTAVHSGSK

[16] = molecular target: STK33(h) (Homo sapiens (Human), UniProt Q9BYT3); type: biochemical; conditions: read-out: The percentage of the remaining active protein
[17] = molecular target: AMPKα2(h) (Homo sapiens (Human), UniProt P54646); type: biochemical; conditions: read-out: The percentage of the remaining active protein
[18] = molecular target: Wee1(h) (Homo sapiens (Human), UniProt P30291); type: biochemical; conditions: read-out: The percentage of the remaining active protein
[19] = molecular target: PI3 Kinase (p110a(E542K)/p85a)(h) (Homo sapiens (Human), UniProt P42336, E542K); type: biochemical; conditions: read-out: The percentage of the remaining active protein
[20] = molecular target: Mnk2(h) (Homo sapiens (Human), UniProt Q9HBH9); type: biochemical; conditions: read-out: The percentage of the remaining active protein
[21] = molecular target: PKG1α(h) (Homo sapiens (Human), UniProt Q13976); type: biochemical; conditions: read-out: The percentage of the remaining active protein
[22] = molecular target: IGF-1R(h) (Homo sapiens (Human), UniProt P08069); type: biochemical; conditions: read-out: The percentage of the remaining active protein
Sequence of IGF-1R(h) (P08069 31-1367): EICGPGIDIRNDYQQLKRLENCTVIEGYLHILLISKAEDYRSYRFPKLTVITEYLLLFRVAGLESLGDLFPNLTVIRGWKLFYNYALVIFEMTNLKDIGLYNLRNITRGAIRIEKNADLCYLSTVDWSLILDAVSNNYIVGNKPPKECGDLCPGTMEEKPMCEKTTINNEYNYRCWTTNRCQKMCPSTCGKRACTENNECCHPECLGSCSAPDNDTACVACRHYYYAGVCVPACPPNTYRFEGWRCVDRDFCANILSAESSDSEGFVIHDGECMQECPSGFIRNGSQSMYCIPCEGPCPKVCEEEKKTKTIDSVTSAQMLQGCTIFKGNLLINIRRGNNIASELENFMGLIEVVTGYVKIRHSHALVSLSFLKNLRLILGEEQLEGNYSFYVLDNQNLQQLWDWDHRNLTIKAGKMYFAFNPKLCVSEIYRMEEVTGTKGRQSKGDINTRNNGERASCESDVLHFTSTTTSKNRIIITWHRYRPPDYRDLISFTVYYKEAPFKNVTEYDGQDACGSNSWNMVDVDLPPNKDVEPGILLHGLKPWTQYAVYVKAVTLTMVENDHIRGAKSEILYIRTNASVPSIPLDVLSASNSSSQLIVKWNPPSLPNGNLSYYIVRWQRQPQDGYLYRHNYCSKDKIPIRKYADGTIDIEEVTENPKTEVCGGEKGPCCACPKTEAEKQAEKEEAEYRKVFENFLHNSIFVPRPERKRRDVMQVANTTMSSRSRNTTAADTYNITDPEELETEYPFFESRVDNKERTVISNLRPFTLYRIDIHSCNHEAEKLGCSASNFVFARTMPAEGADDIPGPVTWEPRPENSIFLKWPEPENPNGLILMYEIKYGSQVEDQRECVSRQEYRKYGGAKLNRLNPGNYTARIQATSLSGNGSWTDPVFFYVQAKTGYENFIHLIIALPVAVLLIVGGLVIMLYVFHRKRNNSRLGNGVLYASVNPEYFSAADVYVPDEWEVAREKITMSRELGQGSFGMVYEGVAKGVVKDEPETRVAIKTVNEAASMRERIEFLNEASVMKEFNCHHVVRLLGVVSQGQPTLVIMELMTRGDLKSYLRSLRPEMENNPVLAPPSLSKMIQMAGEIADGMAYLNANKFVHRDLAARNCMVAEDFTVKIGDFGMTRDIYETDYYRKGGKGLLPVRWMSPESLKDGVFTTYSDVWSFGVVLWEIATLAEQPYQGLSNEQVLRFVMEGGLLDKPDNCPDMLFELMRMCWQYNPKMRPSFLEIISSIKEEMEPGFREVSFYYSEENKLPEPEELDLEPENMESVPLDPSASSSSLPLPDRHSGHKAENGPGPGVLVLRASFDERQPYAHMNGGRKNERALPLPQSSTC

[23] = molecular target: PI3KC2g(h) (Homo sapiens (Human), UniProt O75747); type: biochemical; conditions: read-out: The percentage of the remaining active protein
[24] = molecular target: PI3 Kinase (p110a(H1047R)/p85a)(h) (Homo sapiens (Human), UniProt P42336, H1047R); type: biochemical; conditions: read-out: The percentage of the remaining active protein
[25] = molecular target: CK1γ2(h) (Homo sapiens (Human), UniProt P78368); type: biochemical; conditions: read-out: The percentage of the remaining active protein
[26] = molecular target: GRK6(h) (Homo sapiens (Human), UniProt P43250); type: biochemical; conditions: read-out: The percentage of the remaining active protein
[27] = molecular target: A-Raf(h) (Homo sapiens (Human), UniProt P10398); type: biochemical; conditions: read-out: The percentage of the remaining active protein
[28] = molecular target: Mer (Homo sapiens (Human), UniProt Q12866); type: biochemical; conditions: Mer(h), read-out: The percentage of the remaining active protein
[29] = molecular target: CDK9/cyclin T1(h) (Homo sapiens (Human), UniProt P50750); type: biochemical; conditions: read-out: The percentage of the remaining active protein
[30] = molecular target: CDK5/p35(h) (Homo sapiens (Human), UniProt Q00535); type: biochemical; conditions: read-out: The percentage of the remaining active protein
[31] = test system: MLCK(h); type: biochemical, human; conditions: 10 μM
[32] = molecular target: Fms(Y969C)(h) (Homo sapiens (Human), UniProt P07333, Y969C); type: biochemical; conditions: read-out: The percentage of the remaining active protein
[33] = molecular target: NIM1(h) (Homo sapiens (Human), UniProt Q8IY84); type: biochemical; conditions: read-out: The percentage of the remaining active protein
Sequence of NIM1(h) (Q8IY84 whole entry): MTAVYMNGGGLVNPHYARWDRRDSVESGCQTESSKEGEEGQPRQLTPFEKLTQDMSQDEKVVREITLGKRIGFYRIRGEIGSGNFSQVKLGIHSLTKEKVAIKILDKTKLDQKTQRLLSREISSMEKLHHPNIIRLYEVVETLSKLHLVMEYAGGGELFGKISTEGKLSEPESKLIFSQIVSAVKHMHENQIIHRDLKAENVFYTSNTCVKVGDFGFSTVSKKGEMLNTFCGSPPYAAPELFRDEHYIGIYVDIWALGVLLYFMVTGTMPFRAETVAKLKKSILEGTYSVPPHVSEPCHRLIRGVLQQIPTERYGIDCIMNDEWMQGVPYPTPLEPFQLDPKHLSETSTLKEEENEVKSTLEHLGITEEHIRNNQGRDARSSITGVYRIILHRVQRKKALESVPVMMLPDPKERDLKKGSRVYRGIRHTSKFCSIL

[34] = molecular target: Rsk3(h) (Homo sapiens (Human), UniProt Q15349); type: biochemical; conditions: read-out: The percentage of the remaining active protein
[35] = molecular target: MARK1(h) (Homo sapiens (Human), UniProt Q9P0L2); type: biochemical; conditions: read-out: The percentage of the remaining active protein
[36] = molecular target: PI3 Kinase (p110d/p85a)(m) (Mus musculus (Mouse), UniProt O35904); type: biochemical; conditions: read-out: The percentage of the remaining active protein

Sequence of Lck (P06239 whole entry): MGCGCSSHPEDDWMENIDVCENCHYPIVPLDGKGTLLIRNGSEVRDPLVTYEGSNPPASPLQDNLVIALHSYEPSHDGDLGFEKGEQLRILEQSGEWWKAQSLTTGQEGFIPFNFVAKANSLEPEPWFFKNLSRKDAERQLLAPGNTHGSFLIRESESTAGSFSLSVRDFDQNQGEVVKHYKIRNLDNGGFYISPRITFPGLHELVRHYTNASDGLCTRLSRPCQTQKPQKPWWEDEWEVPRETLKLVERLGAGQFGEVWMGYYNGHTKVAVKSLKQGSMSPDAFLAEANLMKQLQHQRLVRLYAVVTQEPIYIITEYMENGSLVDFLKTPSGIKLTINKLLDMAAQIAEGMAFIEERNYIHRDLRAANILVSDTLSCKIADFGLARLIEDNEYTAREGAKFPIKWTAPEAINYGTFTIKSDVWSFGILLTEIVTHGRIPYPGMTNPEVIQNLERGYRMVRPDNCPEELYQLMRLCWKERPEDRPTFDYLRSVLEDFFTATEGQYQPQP

Cc1ccc(NC(=O)c2ccc(C)c(C(F)(F)F)c2)cc1C#Cc1nn([C@H]2CC[C@H](O)CC2)c2ncnc(N)c12 [Compound 93]
remaining activity at 10 µM ([1]; Lck(h), 10 μM, read-out: The percentage of the remaining active protein): 0% | pIC50 ([1]; Lck, ATP at Km): 7.85 | remaining activity at 10 µM [2]: 64% | remaining activity at 10 µM [3]: 96% | remaining activity at 10 µM [4]: 99% | remaining activity at 10 µM [5]: 124% | remaining activity at 10 µM [6]: 93% | remaining activity at 10 µM [7]: -1% | remaining activity at 10 µM [8]: 89% | remaining activity at 10 µM [9]: 94% | remaining activity at 10 µM [10]: 90% | remaining activity at 10 µM [11]: -2% | remaining activity at 10 µM [12]: 105% | remaining activity at 10 µM [13]: 94% | remaining activity at 10 µM [14]: 92% | remaining activity at 10 µM [15]: 92% | remaining activity at 10 µM [16]: 109% | remaining activity at 10 µM [17]: 90% | remaining activity at 10 µM [18]: 95% | remaining activity at 10 µM [19]: 85% | remaining activity at 10 µM [20]: 96% | remaining activity at 10 µM [21]: 118% | remaining activity at 10 µM [22]: 66% | remaining activity at 10 µM [23]: 98% | remaining activity at 10 µM [24]: 89% | remaining activity at 10 µM [25]: 114% | remaining activity at 10 µM [26]: 100% | remaining activity at 10 µM [27]: 7% | remaining activity at 10 µM [28]: 0% | remaining activity at 10 µM [29]: 113% | remaining activity at 10 µM [30]: 127% | The percentage of the remaining active protein [31]: 62% | remaining activity at 10 µM [32]: 13% | remaining activity at 10 µM [33]: 131% | remaining activity at 10 µM [34]: 38% | remaining activity at 10 µM [35]: 94% | remaining activity at 10 µM [36]: 78%
